Reference: patent US10197579B2, “Methods for measurement of inhibition of c-Jun N-terminal kinase in skin” (Signal Pharmaceuticals, LLC, priority 2014, dated 2019)

Tested on: phosphorylation of c-Jun at Ser63 in HEKa cells
Experiment: UVB-induced c-Jun Ser63 phosphorylation in HEKa keratinocytes (Western immunoblotting)
Assay type: cell-based, Human
Conditions: HEKa cells from four donors; 50 mJ/cm^2 UVB; Compound 1 added 1 hour before and kept 30 minutes after irradiation; nuclear extract, Western blot (FIGS. 1-5)
Description: Adult Normal Human […] Keratinocytes (HEKa) were obtained from ScienCell. Cells were plated in 10 cm dishes and incubated to allow attachment and then serum starved overnight. Compound 1 was added 1 hour before the cells were irradiated with 50 mJ/cm^2 UVB. Cells were incubated with Compound 1 for an additional 30 minutes after UVB irradiation. Cells were then lysed and nuclear and cytoplasmic proteins were isolated using the Nuclear Extraction kit by Active Motif. Protein was run on 10% tris glycine gels and transferred to nitrocellulose membranes. Blots were blocked for 1 hour. Total and phosphorylated c-Jun primary antibodies were added and incubated overnight. Licor secondary antibodies were added and blots were read on the Li-Cor Odyssey. 1-5. There was increased phosphorylation of c-Jun at Ser63 with 50 mJ/cm^2 UVB radiation, and inhibition by Compound 1 (FIGS. 1-5). There was also good separation of the nuclear and cytoplasmic proteins (c-Jun is only in the nucleus) (FIGS. 1-4).

C[C@@H]1CC[C@@H](Nc2nc(NC(C)(C)C)ncc2C(N)=O)C[C@H]1O [Compound 1, 2-(tert-butylamino)-4-((1R,3R,4R)-3-hydroxy-4-methylcyclohexylamino)-pyrimidine-5-carboxamide]
inhibition of phosphorylation of c-Jun at Ser63 induced by UVB radiation: inhibits c-Jun phosphorylation at Ser63 in a dose dependent manor
